In the OligoGym collection:
Several values for one entry are separate records, joined by “and”; a condition that tells them apart may be missing. Equal values may be shown once. These antisense oligonucleotides have a phosphorothioate backbone; sugars and methylation of C are not fully specified.

Assays:
Conditions in all cases: ASO
[1] = target: IL1R1
[2] = target: SELE
[3] = target: AKT2
[4] = target: ERBB2
Note: test concentration or dose not given here.

AACTTCTCCATGCTACCCGA
remaining target (mRNA or protein) (fraction of control) [1]: 0.75

AATCATGACTTCAAGAGTTCT
remaining target (mRNA or protein) (fraction of control) [2]: 0.78 and 0.53

ACAGGATCTCTCAGGTGGGT
remaining target (mRNA or protein) (fraction of control) [2]: 0.2

ACCACACTGGTATTTCACAC
remaining target (mRNA or protein) (fraction of control) [2]: 0.67

ACCAGGATGACTTTGCCA
remaining target (mRNA or protein) (fraction of control) [3]: 0.25

ACCGCAGAGATGATGGAC
remaining target (mRNA or protein) (fraction of control) [4]: 0.98

ACCTCTGCTGTTCTGATCCT
remaining target (mRNA or protein) (fraction of control) [2]: 0.17

ACGTTTGGCCTCATGGAAGT
remaining target (mRNA or protein) (fraction of control) [2]: 0.35

ACTCCATCACAAAGCACA
remaining target (mRNA or protein) (fraction of control) [3]: 0.2

ACTCTGGTGGGTGAACCG
remaining target (mRNA or protein) (fraction of control) [4]: 0.86

ACTGTGTGAGCGACTTCA
remaining target (mRNA or protein) (fraction of control) [3]: 0.38

AGATGCCTTGCGTTGGCTGC
remaining target (mRNA or protein) (fraction of control) [1]: 0.5

AGGGCTGCGGCGGCTCCACT
remaining target (mRNA or protein) (fraction of control) [1]: 0.75

AGTAACACTTTCATATTCTT
remaining target (mRNA or protein) (fraction of control) [1]: 0.75

AGTCAAAGGAAGTTCACGGG
remaining target (mRNA or protein) (fraction of control) [1]: 0.5

AGTCCTCCGTCTCCTGCAAC
remaining target (mRNA or protein) (fraction of control) [1]: 0.75

AGTGCTACGGTGCGGGCGCG
remaining target (mRNA or protein) (fraction of control) [1]: 0.75

AGTTGATGCTGAGGAAGA
remaining target (mRNA or protein) (fraction of control) [3]: 0.51

ATGACAAAGGTGTTGGGT
remaining target (mRNA or protein) (fraction of control) [3]: 0.29

ATGACCTCCTTGGCATCG
remaining target (mRNA or protein) (fraction of control) [3]: 0.18

ATGATGACTTCCTTTCGC
remaining target (mRNA or protein) (fraction of control) [3]: 0.43

CAAGGAGTTTGAGATAGT
remaining target (mRNA or protein) (fraction of control) [3]: 0.36

CAATCATGACTTCAAGAGTTC
remaining target (mRNA or protein) (fraction of control) [2]: 0.77

CACAATCCTTAAGAACTCTTT
remaining target (mRNA or protein) (fraction of control) [2]: 0.31

CACCGAGGAGCAGGCGCGGC
remaining target (mRNA or protein) (fraction of control) [1]: 0.75

CACTGCAACCTCCGTCTCCC
remaining target (mRNA or protein) (fraction of control) [1]: 0.75

CACTGGTAACTGCCCTCA
remaining target (mRNA or protein) (fraction of control) [4]: 0.54

CACTTAGCCGTGCGTTGGTG
remaining target (mRNA or protein) (fraction of control) [1]: 0.5

CAGCCAAGAACAGCT
remaining target (mRNA or protein) (fraction of control) [2]: 0.5

CAGCCAAGAACAGCTGG
remaining target (mRNA or protein) (fraction of control) [2]: 0.62

CAGGAAGGACAGGCTGGC
remaining target (mRNA or protein) (fraction of control) [4]: 0.94

CAGGGTCAGCGAGTAGGC
remaining target (mRNA or protein) (fraction of control) [4]: 0.89

CAGTCGTGGAGGAGTCAC
remaining target (mRNA or protein) (fraction of control) [3]: 0.42

CATAACCTGGCCTGCAACGC
remaining target (mRNA or protein) (fraction of control) [1]: 0.75

CATTCCATGAACTCTGCAAG
remaining target (mRNA or protein) (fraction of control) [1]: 0.75

CATTCCTGCCGCTCCCTGGG
remaining target (mRNA or protein) (fraction of control) [1]: 0.75

CCAAAGTGAGAGCTGAGAGA
remaining target (mRNA or protein) (fraction of control) [2]: 0.36

CCAATCATGACTTCAAGAGTT
remaining target (mRNA or protein) (fraction of control) [2]: 0.32

CCAATGAAGGAGCCGTCG
remaining target (mRNA or protein) (fraction of control) [3]: ≥ 1

CCACAAAGACTCCCCAGT
remaining target (mRNA or protein) (fraction of control) [4]: 0.44

CCAGCAGTGAGCGGTAGA
remaining target (mRNA or protein) (fraction of control) [4]: 0.41

CCAGCCTTCTTTGATGAC
remaining target (mRNA or protein) (fraction of control) [3]: 0.25

CCATCAGTCTCAGAGGGC
remaining target (mRNA or protein) (fraction of control) [4]: 0.3

CCCAAAGGTTTAGGCTTG
remaining target (mRNA or protein) (fraction of control) [2]: 0.61

CCCGCTCCTCTGTGAAGA
remaining target (mRNA or protein) (fraction of control) [3]: 0.08

CCCTTCCATAAATGAACAGC
remaining target (mRNA or protein) (fraction of control) [1]: 0.75

CCCTTGGGCTGTGGATGACT
remaining target (mRNA or protein) (fraction of control) [1]: 0.75

CCCTTGTAGACTGTGCCA
remaining target (mRNA or protein) (fraction of control) [4]: 0.56

CCGCACATCCTCCAGGTA
remaining target (mRNA or protein) (fraction of control) [4]: 0.64

CCGCATCCACTCCTCCCT
remaining target (mRNA or protein) (fraction of control) [3]: 0.12

CCGCCACTCCTGGTAGAT
remaining target (mRNA or protein) (fraction of control) [4]: ≥ 1

CCGCTGCTTGAGGCTGTT
remaining target (mRNA or protein) (fraction of control) [3]: 0.29

CCTCCACCCACGCTTATCCA
remaining target (mRNA or protein) (fraction of control) [1]: 0.29

CCTCCAGGGCTGCGGCGGCT
remaining target (mRNA or protein) (fraction of control) [1]: 0.75

CCTGCCTCACTTGGTTGT
remaining target (mRNA or protein) (fraction of control) [4]: 0.64

CCTTTCCAGAGTGGCACC
remaining target (mRNA or protein) (fraction of control) [4]: 0.75

CGAAGGCTGGGCTGAAGG
remaining target (mRNA or protein) (fraction of control) [4]: 0.73

CGCGCTCGGCTCCTCCCGGC
remaining target (mRNA or protein) (fraction of control) [1]: 0.75

CGTGCCAGTGTGGAGTGAGG
remaining target (mRNA or protein) (fraction of control) [1]: 0.23

CGTGCGTCCTCTGCGTGG
remaining target (mRNA or protein) (fraction of control) [3]: 0.14

CGTTCTGCACTTACCGTTTTG
remaining target (mRNA or protein) (fraction of control) [2]: 0.52

CTACGGAGAAGTTGTTTA
remaining target (mRNA or protein) (fraction of control) [3]: 0.42

CTCCTTGGCATCGCTGGG
remaining target (mRNA or protein) (fraction of control) [3]: 0.29

CTCTCCACCGAGGAGCAGGC
remaining target (mRNA or protein) (fraction of control) [1]: 0.75

CTGATTCAAGGCTTTGGCAG
remaining target (mRNA or protein) (fraction of control) [2]: 0.55

CTGCTGCCTCTGTCTCAGGT
remaining target (mRNA or protein) (fraction of control) [2]: 0.07

CTGGTAGAGGTGGCGGAG
remaining target (mRNA or protein) (fraction of control) [4]: ≥ 1

CTGGTTCACACTGGCACG
remaining target (mRNA or protein) (fraction of control) [4]: 0.4
